Assay results taken from patent US20160120979A1, “METHOD OF APPLYING A COMPOSITION AND PHARMACEUTICAL COMPOSITION WITH A REGIMEN OF ADMINISTERING IT” (priority 2013, published 2016).
≈ marks a conversion by molar mass, not a printed value. Read-outs that look alike come from different tables or passages of the source.

How the values were obtained:
[1] = test system: MU 50 multi-resistant bacteria; assay: Experiment 7: growth of MU50 after pulsed 400 nm photo-activation of antibiotics; format: cell-based, Staphylococcus aureus
Protocol: (§1) In Experiments 7 to 9 the effect of some exemplary photo-activated antibiotics is tested on two different multi resistant bacterial strains:
In Experiment 7 MU 50 multi-resistant bacteria as described above for Experiments 1 to 3 were tested.
(§2) G→Pulse ON 5 ms energy 0.05 J, OFF 45 ms during 10 minutes
(§3) The following experimental procedure are the same for experiments 7, 8 and 9: The bacterial cells were grown in Mueller Hinton Broth in the presence of an antibiotic at a concentration according to the table below until they reached turbidity of 1 according to the McFarland Standard (=3×10^8 bacteria/ml):
(§4) For each antibiotic two patterns of pulsed exposure for photo-activation were applied and a control without exposure to radiation. For example in experiment 7 and 8, pulse ON 10 ms energy 0.1 J, OFF 90 ms during 10 minutes and pulse ON 5 ms energy 0.05 J, OFF 45 ms i.e. in both treatments a 10% ON and a 90% OFF pattern and both for a duration of 10 minutes.
(§5) Incubation for 2 to up 36 hours at 37° C. until time=t2
(§6) At time=t2 one of the antibiotics is added to obtain the same concentration of antibiotic as during the original growth phase prior to time t1=0 as listed in the table above.
(§7) Incubation for further 2 to 4 hours at 37° C. in the presence of antibiotic until time=t3.
(§8) The absorbance value correlates to the colloidal effect and the number of bacteria in the sample.
(§9) These tables below list for each bacterial sample the difference in absorption values representing the difference in the number of bacteria present in each sample by subtracting the absorption values at time t4, which is the last measurement of the growth curve presented in FIGS. 3 to 5 from the last absorption value before the treatment with light at time t3. The values of A and G represent the effect of the treatment of the bacterial samples with two different light patterns for activation of the antibiotic as described above. The values of D correspond to the control samples without photo-activation of the antibiotic: […]

[2] = test system: PA01 Pseudamonas aeruginosa MultiR genetically modified bacteria; assay: Experiment 8: growth of PA01 after pulsed 400 nm photo-activation of antibiotics; format: cell-based; details: antibiotic concentration per the 12th table
Protocol: as §1
(§10) In Experiment 8 and 9 PA01 Pseudamonas aeruginosa MultiR genetically modified bacteria were tested. This PA01 strain is genetically modified with a quinolone pump and conferring resistance to antibiotics of the quinolone group of antibiotics.
as §2, §3, §4, §5, §6, §7, §8, §9

[3] = test system: PA01 Pseudamonas aeruginosa MultiR genetically modified bacteria; assay: Experiment 9: growth of PA01 after pulsed 400 nm photo-activation, shorter pulses; format: cell-based; details: antibiotic concentration per the 13th table
Protocol: as §1, §10
A→Pulse ON 3 ms energy 0.03 J, OFF 27 ms during 10 minutes
G→Pulse ON 1 ms energy 0.01 J, OFF 9 ms during 10 minutes
as §3, §4, §5, §6, §7, §8, §9

[4] = test system: Acinetobacter; assay: Experiment 12: replication on antibiotic agar after pulsed 400 nm irradiation; format: cell-based; details: 24 hours incubation; for C: Acinetobacter (no irradiation), replication: antibiotic 10 mg/l in MH agar; for D Acinetobacter (irradiation), replication: antibiotic 10 mg/l, 400 nm LED pulses 0.02 ms, 1 kHz, 10 minutes
Protocol: (§11) 15′000′000 multi-resistant bacteriae (0.050 ml of a McFarland of 1) were put on 40 mm diameter petri dishes. The petri dishes comprised MH agar with or without antibiotic.
(§12) […]. The LED power during 0.02 ms was measured to be 0.63 W on a Thorlabs power sensor with a surface area of 2.2×2.2 mm representing a power of 13 mW/cm^2.

[5] = test system: Pseudomonas aeruginosa; assay: as above; format: cell-based; details: 24 hours incubation; for A: Pseudomonas aeruginosa (no irradiation), replication: antibiotic 10 mg/l in MH agar; for B: Pseudomonas aeruginosa (irradiation), replication: antibiotic 10 mg/l, 400 nm LED pulses 0.02 ms, 1 kHz, 10 minutes
Protocol: as §11, §12

[6] = test system: Staphylococcus aureus MU500; assay: as above; format: cell-based; details: 24 hours incubation; for E: Staphylococcus aureus MU500 (no irradiation), replication: antibiotic 10 mg/l in MH agar; for F: Staphylococcus aureus MU500 (irradiation), replication: antibiotic 10 mg/l, 400 nm LED pulses 0.02 ms, 1 kHz, 10 minutes
Protocol: as §11
(§13) The LED power during 0.02 ms was measured to be 0.63 W on a Thorlabs power sensor with a surface area of 2.2×2.2 mm representing a power of 13 mW/cm^2.

[7] = test system: chemotherapy resistant stage 4 (metastatic) small cells lung carcinoma cells; assay: Experiment 10: metabolic activity (CellTiter-Glo) of resistant neoplastic cells after photo-activated oncological drugs; details: sample 4, Topotecan 0.07 μg/ml
[8] = test system: MU50 multidrug-resistant Staphylococcus aureus strain (MRSA); assay: Minimum inhibitory concentration (MIC) on MU50; format: cell-based; details: Staphylococcus aureus, MRSA; overnight incubation; read-out: MIC
Source text: For some of the experimental tests MU50 bacteria were used. MU50 is a multidrug-resistant Staphylococcus aureus strain (MRSA). MRSA are bacteria which have naturally evolved under antibiotic selection pressure and which are known to be resistant to antibiotics including penicillins (methicillin, dicloxacillin, nafcillin, oxacillin, etc.) and cephalosporins. MU50 is additionally resistant to macrolides, quinolones and aminoglycosides.
The minimum inhibitory concentration (MIC), which inhibits the visible growth of a microorganism after an overnight incubation was determined for the following antibiotics: […]

[9] = test system: Mice fibroblast; format: cell-based; details: Tobramycin 75, Tetracycline 10, Ciprofloxacin 1 μg/ml; 30 min pre-incubation; no treatment, CXL 18 mW/cm2 5 min or laser 405 nm 1 min; 24 hours
Protocol: The number of colony forming units (CFU) was determined after 24 hours of incubation at 37° C.

[10] = test system: fibroblasts; format: cell-based
Protocol: In the second toxicity test fibroblasts were grown in RPMI cell culture medium medium with 10% fetal bovine serum and 1% of penicillin-streptomycin-fungizione (100×).
A: pulsed for 10 ms on and 90 ms of for 10 minutes or
B: pulsed for 5 ms on and 45 ms of for 10 minutes
C: no exposure to electromagnetic radiation
The result was obtained by counting viable cells for determination of the percentage of viable cells, with 100% viability being equal to the number of cells delivered to each well.

[11] = test system: Acinetobacter; format: cell-based; details: remaining bacteria of experiment 12 proliferated and treated again
Protocol: as §11, §13
(§14) After the irradiation treatment according to experiment 12, remaining bacteria were allowed to proliferate and then were subject to the treatment according to experiment 12 again in order to test for possible new resistances to the treatment. The values in the following table are designated as in experiment 12: […]

[12] = test system: Staphylococcus aureus MU500; format: cell-based; details: remaining bacteria of experiment 12 proliferated and treated again
Protocol: as §11, §13, §14

[13] = test system: MU50 multi-drug resistant bacterial cells; assay: Experiment 2: moxifloxacin with UV-A on MU50 (CFU); format: cell-based, Staphylococcus aureus; details: for control: CFU without UVA: no UVA
Source text: This low concentration was chosen so as to detect threshold effects at the low edge of a just marginally effective concentration level of the antibiotic.

[14] = sample 1A: moxifloxacin during UV 5 μg/ml, after UV 7.5 μg/ml for 2 hours, UV-A 365 nm 10 mW/cm^2 10 min
[15] = sample 1B: moxifloxacin during UV 5 μg/ml, after UV 2.5 μg/ml (NaCl added), UV-A 365 nm 10 mW/cm^2 10 min

## CC[C@H]1OC(=O)[C@H](C)[C@@H](O[C@H]2C[C@@](C)(OC)[C@@H](O)[C@H](C)O2)[C@H](C)[C@@H](O[C@@H]2O[C@H](C)C[C@H](N(C)C)[C@H]2O)[C@](C)(OC)C[C@@H](C)C(=O)[C@H](C)[C@@H](O)[C@]1(C)O [Clarithromycin]
[1]
  difference in absorption values (595-600 nm) between t4 and t3: 0.0956
[1]; 10 min
  difference in absorption values (595-600 nm) between t4 and t3: −0.1383
[1]; 10 h
  difference in absorption values (595-600 nm) between t4 and t3: −0.1249
[2]; A: 400 nm LED pulse ON 10 ms energy 0.1 J, OFF 90 ms during 10 minutes
  difference in absorption values (595-600 nm) between t4 and t3: 0.0106
[2]; D: control no pulse
  difference in absorption values (595-600 nm) between t4 and t3: 0.1041
[2]; G: 400 nm LED pulse ON 5 ms energy 0.05 J, OFF 45 ms during 10 minutes
  difference in absorption values (595-600 nm) between t4 and t3: −0.0396
[3]; A: 400 nm LED pulse ON 3 ms energy 0.03 J, OFF 27 ms during 10 minutes
  difference in absorption values (595-600 nm) between t4 and t3: −0.1708
[3]; D: control no pulse
  difference in absorption values (595-600 nm) between t4 and t3: −0.0024
[3]; G: 400 nm LED pulse ON 1 ms energy 0.01 J, OFF 9 ms during 10 minutes
  difference in absorption values (595-600 nm) between t4 and t3: −0.0994
[4]
  C: Acinetobacter (no irradiation), replication: R (Bacteria can replicate after the treatment)
  D Acinetobacter (irradiation), replication: R (Bacteria can replicate after the treatment)
[5]
  A: Pseudomonas aeruginosa (no irradiation), replication: R (Bacteria can replicate after the treatment)
  B: Pseudomonas aeruginosa (irradiation), replication: PR (Bacteria can replicate partially)
[6]
  E: Staphylococcus aureus MU500 (no irradiation), replication: R (Bacteria can replicate after the treatment)
  F: Staphylococcus aureus MU500 (irradiation), replication: R (Bacteria can replicate after the treatment)

## CC[C@@]1(O)C(=O)OCc2c1cc1n(c2=O)Cc2cc3c(CN(C)C)c(O)ccc3nc2-1 [Topotecan]
[7]; A: pulse ON 10 ms, 0.1 J, OFF 90 ms, 10 minutes
  cell metabolic activity (luminescence, ATP) after normalization with the controls: 7%
[7]; B: pulse ON 10 ms, 0.01-0.001 J, OFF 90 ms, 10 minutes
  cell metabolic activity (luminescence, ATP) after normalization with the controls: 52%
[7]; C: control no pulse
  cell metabolic activity (luminescence, ATP) after normalization with the controls: 100%
[7]; D: control no pulse
  cell metabolic activity (luminescence, ATP) after normalization with the controls: 100%
[7]; E: pulse ON 10 ms, 0.01-0.001 J, OFF 90 ms, 5 minutes
  cell metabolic activity (luminescence, ATP) after normalization with the controls: 47%
[7]; F: pulse ON 10 ms, 0.1 J, OFF 90 ms, 5 minutes
  cell metabolic activity (luminescence, ATP) after normalization with the controls: 5%

## CN(C)[C@@H]1C(O)=C(C(N)=O)C(=O)[C@@]2(O)C(O)=C3C(=O)c4c(O)cccc4[C@@](C)(O)C3CC12 (stereo partly shown) [Tetracycline]
[8]
  MIC: 32 µg/mL (≈ 72 µM)
[9]
  toxicity in term of necrosis and apoptosis: No toxicity in term of necrosis and apoptosis
[10]; A: 405 nm pulsed 10 ms on, 90 ms off for 10 minutes
  Percentage of viable cells Normalized for the dead cell in NaCl group including light: 52%
[10]; B: 405 nm pulsed 5 ms on, 45 ms off for 10 minutes
  Percentage of viable cells Normalized for the dead cell in NaCl group including light: 57%
[4]
  C: Acinetobacter (no irradiation), replication: R (Bacteria can replicate after the treatment)
  D Acinetobacter (irradiation), replication: NR (No replication)
[5]
  A: Pseudomonas aeruginosa (no irradiation), replication: R (Bacteria can replicate after the treatment)
  B: Pseudomonas aeruginosa (irradiation), replication: NR (No replication)
[6]
  E: Staphylococcus aureus MU500 (no irradiation), replication: R (Bacteria can replicate after the treatment)
  F: Staphylococcus aureus MU500 (irradiation), replication: NR (No replication)
[11]
  D Acinetobacter (irradiation), replication, second treatment: NR (No replication)
  C: Acinetobacter (no irradiation), replication, second treatment: R (Bacteria can replicate after the treatment)
[12]
  F: Staphylococcus aureus MU500 (irradiation), replication, second treatment: NR (No replication)
  E: Staphylococcus aureus MU500 (no irradiation), replication, second treatment: R (Bacteria can replicate after the treatment)

## COc1c(N2C[C@@H]3CCCN[C@@H]3C2)c(F)cc2c(=O)c(C(=O)O)cn(C3CC3)c12 [Moxifloxacin]
[13]; sample 1A: moxifloxacin during 5 μg/ml, after 7.5 μg/ml for 2 hours
  control: CFU without UVA: 516 CFU
[13]; [14]
  CFU with UVA: 3 CFU
  CFU with UVA, percentage in brackets (survival rate): 0%
[13]; sample 1B: moxifloxacin during 5 μg/ml, after 2.5 μg/ml (NaCl added)
  control: CFU without UVA: 400 CFU
[13]; [15]
  CFU with UVA: 119 CFU
  CFU with UVA, percentage in brackets: 30%
[10]; C: no exposure to electromagnetic radiation, antibiotic 3-10 μg/ml final
  Percentage of viable cells: 85%
[4]
  C: Acinetobacter (no irradiation), replication: R (Bacteria can replicate after the treatment)
  D Acinetobacter (irradiation), replication: NR (No replication)
[5]
  A: Pseudomonas aeruginosa (no irradiation), replication: R (Bacteria can replicate after the treatment)
  B: Pseudomonas aeruginosa (irradiation), replication: NR (No replication)
[6]
  E: Staphylococcus aureus MU500 (no irradiation), replication: R (Bacteria can replicate after the treatment)
  F: Staphylococcus aureus MU500 (irradiation), replication: NR (No replication)
[11]
  D Acinetobacter (irradiation), replication, second treatment: NR (No replication)
  C: Acinetobacter (no irradiation), replication, second treatment: R (Bacteria can replicate after the treatment)
[12]
  F: Staphylococcus aureus MU500 (irradiation), replication, second treatment: PR (Bacteria can replicate partially)
  E: Staphylococcus aureus MU500 (no irradiation), replication, second treatment: R (Bacteria can replicate after the treatment)
